Assay results taken from paper PMC9964390, “Design, Synthesis and Phenotypic Profiling of Simplified Gedatolisib Analogues” (Pharmaceuticals, 2023).

Tests used:
[1] = tested on: CCRF-CEM cell line; experiment: Muse Annexin V and Dead Cell Kit (phosphatidylserine externalization, membrane integrity); assay type: cell-based, human; settings: for reduction of cell viability / total apoptosis: CCRF-CEM, at its CC50 value
Description: (§1) For quantitative analysis of live, early and late apoptosis, and cell death on both the CCRF-CEM and MOLT-4 cell lines, treated with gedatolisib and compound 5f (LASSBio-2252), the Muse® Annexin V and Dead Cell Kit was used. Compounds were studied using three concentrations.
(§2) The Annexin V and Dead Cell Kit (catalog n^o. MCH100105, Luminex) contains Annexin V, a phospholipid marker phosphatidylserine, and the molecule 7-AAD, a DNA marker for cells with a ruptured membrane. […] After incubation for 20 min at room temperature, the samples were read on the cytometer. The data with the histograms generated contain information on the percentage of viable cells, in early apoptosis, late apoptosis and dead cells. Samples from three independent experiments were performed in duplicate, and then statistical analysis was performed using the Prism6 statistical program.

[2] = tested on: MOLT-4 cell line; experiment: as above; assay type: cell-based, human
Description: as §1, §2

[3] = tested on: CCRF-CEM; experiment: Muse Count & Viability Kit (flow cytometry); settings: for CC50 / Emax: Homo sapiens
Description: Cell viability, cell death pattern, cell cycle and detection of PI3K activation were evaluated, and each analysis was performed using specific protocols of the Guava Muse Cell Analyzer.
In total, 20 µL of the cell solution was added to 380 µL of the reagent in 1 mL Eppendorf tubes and incubated for 5 min at room temperature in the dark. Samples from three independent experiments carried out in duplicate were read on the cytometer, followed by statistical analysis of the histograms on Prism6 to determine the CC50.

[4] = tested on: K562; experiment: MTT cell viability assay; assay type: cell-based; settings: Homo sapiens, K562, 72 h MTT; for Emax: read-out: Emax (maximum effect at maximum concentration used)
Description: (§3) For the evaluation of cellular cytotoxicity in cancer cell lines, the compounds were tested at concentrations ranging from 0.00003 μM to 150 μM. Immortalized cancer cells were selected: PC-3 (PTEN-mutated prostate adenocarcinoma), MCF-7 (PI3KCA-mutated breast carcinoma), K562 (P53-mutated chronic myeloid leukemia), CCRF-CEM (acute lymphoblastic leukemia with mutation in PTEN) and MOLT-4 (acute lymphoblastic leukemia with mutation in PI3KR1/PTEN). Peripheral blood mononuclear cells (PBMCs) were used to determine the cytotoxic selectivity index (SI). All immortalized cells were cultured in RPMI 1640 medium with 10% (v/v) FBS, streptomycin + penicillin, at 37 °C in a humidified incubator containing 5% CO2.
(§4) Cell viability was assessed by the MTT assay. The lines selected for this study were plated according to their respective densities, which ranged from 3 × 10^4 to 4 × 10^4 cells per well. Subsequently, they were treated with test compounds at different concentrations (0.00003 μM to 150 μM), gedatolisib and GSK-1059615.
(§5) After incubation, the plates are centrifuged at 440× g for 10 min. Then, 110 μL of the supernatant was withdrawn and each well received 10μL of the MTT solution. The plate was again incubated in an oven at 37 °C and 5% CO2 for 3 to 4 h. At the end of the incubation time, 100 μL of SDS-HCL detergent was added to solubilize the formazan crystals. The plate was shaken on an automatic overnight shaker and then read at a wavelength of 595 nm on the Molecular Devices Spectramax M5 plate reader.

[5] = tested on: MCF7; experiment: MTT cell viability assay; assay type: cell-based; settings: Homo sapiens, MCF7, 72 h MTT; for CC50: 95% confidence interval in brackets; for Emax: read-out: Emax (maximum effect at maximum concentration used)
Description: as §3, §4, §5

[6] = tested on: PC-3; experiment: MTT cell viability assay; assay type: cell-based; settings: Homo sapiens, PC-3, 72 h MTT; for CC50: 95% confidence interval in brackets; for Emax: read-out: Emax (maximum effect at maximum concentration used)
Description: as §3, §4, §5

[7] = tested on: MCF7; experiment: Muse Count & Viability Kit (flow cytometry); design: Emax: dose or concentration left out as unconfirmed
[8] = tested on: PI3K activation and phosphorylation in CCRF-CEM cell line; experiment: Muse PI3K Activation Dual Detection Kit; assay type: cell-based, human
Description: The methodology evaluates the activation and phosphorylation of PI3K and was performed from the labelling with the Guava Muse Luminex® PI3K Activation Dual Detection Kit (catalog n^o. MCH200103, Luminex) containing the anti-AKT/PKB-PECy5 antibody to measure total PI3K and the anti-phospho-AKT (Ser473)-Alexa Fluor® 555 antibody for measurement of activated PI3K.
Following 48 h of incubation in an incubator at 37 °C with 5% CO2, 1 mL of the cell solution was transferred to an Eppendorf tube, washed with PBS and centrifuged at 300× g for 5 min. The supernatant was discarded, and the pellet formed was resuspended in 500 µL of PBS. The samples were again centrifuged at 300× g for 5 min and the supernatant discarded.
Then the cell solutions were resuspended in 200 µL of assay buffer (Part no. CS202124), followed by the addition of 200 µL of fixation buffer (Part n^o. CS202122), ending up with a total volume of 400 µL per sample. The samples were incubated for 5 min on ice and centrifuged at 300× g for 5 min and the supernatant discarded.
Cells were permeabilized by adding 200 µL of ice-cold permeabilization buffer (Part n^o. CS202125) and then incubated on ice for 5 min and centrifuged at 300× g for 5 min, and the supernatant was discarded. The formed pellets were resuspended in 450 µL of assay buffer and vortexed at medium speed. In total, 90 µL of the solution from each sample was aliquoted into a new tube, and 10 µL of the cocktail solution containing Anti-phospho-Akt (Ser473), Alexa Fluor®555 and Anti-Akt/PKB, Pecy5 was added. The samples were homogenised and incubated for 30 min in the dark at room temperature.
After the incubation step, 100 µL of assay buffer was added per sample and centrifuged at 300× g for 5 min, and the supernatant was discarded. The formed pellets were resuspended in 200 µL of assay buffer and vortexed, and the samples were read in Guava Muse Luminex®. Data from three independent experiments performed in duplicate were analysed in the Prism6 program to determine the percentage of cells expressing activated and inactivated PI3K.

[9] = Homo sapiens, CCRF-CEM 48 h, read-out: % of cells, Viable

With CN(C)C1CCN(C(=O)c2ccc(NC(=O)Nc3ccc(-c4nc(N5CCOCC5)nc(N5CCOCC5)n4)cc3)cc2)CC1 [Gedatolisib, gedatolisib] the “reduction of cell viability” value [1] was “about 50%”, the total apoptosis [1] was “about 50%” and the viability at 0.6 µM ([1]; Homo sapiens, CCRF-CEM 48 h, 0.6 μM, read-out: % of cells, Viable) was 68%. For the same compound, the viability at 6 µM ([1]; Homo sapiens, CCRF-CEM 48 h, 6 μM, read-out: % of cells, Viable) was 55%, the viability at 50 µM [1, 9] was 7% and the viability at 0.15 µM ([2]; Homo sapiens, MOLT-4 48 h, 0.15 μM, read-out: % de células, Viable) was 10%. For the same compound, the viability at 1.5 µM ([2]; Homo sapiens, MOLT-4 48 h, 1.5 μM, read-out: % de células, Viable) was 11%, the viability at 30 µM ([2]; Homo sapiens, MOLT-4 48 h, 30 μM, read-out: % de células, Viable) was 4% and the “reduction of cell viability” value ([2]; MOLT-4, concentration 10 times lower than its CC50) was 90%. The “loss of potency in Muse Count & Viability Kit 72 h versus 72 h MTT” value [3] was 100 fold, the CC50 ([3]; 48 h) was 5.88 µM and the Emax ([3]; 48 h) was 94%. The CC50 ([3]; 72 h) was 6.15 µM, the Emax ([3]; 72 h) was 94% and the CC50 ([4]; K562, 72 h) was over 24 µM. The CC50 ([4]; K562, 72 h, 95% confidence interval in brackets) was 24.1 µM, the Emax [4] was 64% and the CC50 [5] was 0.07 µM. The Emax [5] was 87%, the CC50 [6] was 0.54 µM and the Emax [6] was 80%. For the same compound, the Emax ([7]; Homo sapiens, MCF7, 72 h, read-out: maximum effect (Emax)) was 54% and the “increase of the percentage of cells in the inactivated state” value ([8]; at its CC50 (~6 μM) and 10 times lower (0.6 μM)) was “about 75%”.
c1ccc(N2CCN(c3nc(N4CCCNCC4)nc(N4CCOCC4)n3)CC2)cc1 [5f, 4-(4-(1,4-Diazepan-1-yl)-6-(4-phenylpiperazin-1-yl)-1,3,5-triazin-2-yl)morpholine] was tested, and the “reduction of cell viability” value [1] was “about 50%”, the total apoptosis [1] was “about 50%” and the viability at 5 µM ([1]; Homo sapiens, CCRF-CEM 48 h, 5 μM, read-out: % of cells, Viable) was 87%. For the same compound, the viability at 50 µM [1, 9] was 47%, the viability at 6 µM ([2]; Homo sapiens, MOLT-4 48 h, 6 μM, read-out: % de células, Viable) was 86% and the viability at 60 µM ([2]; Homo sapiens, MOLT-4 48 h, 60 μM, read-out: % de células, Viable) was 20%. The “reduction of the number of viable cells” value ([2]; MOLT-4, tested at 10-fold concentration) was 80%, the “reduction of the number of viable cells” value ([2]; MOLT-4, tested at its CC50 value) was 14% and the “loss of potency in Muse Count & Viability Kit 72 h versus 72 h MTT” value [3] was at most 10 fold. For the same compound, the CC50 ([3]; 48 h) was 49 µM, the Emax ([3]; 48 h) was 95% and the CC50 ([3]; 72 h) was 53.1 µM. For the same compound, the Emax ([3]; 72 h) was 96%, the CC50 ([4]; 95% confidence interval in brackets) was 23.4 µM and the Emax [4] was 84%. It also gave a CC50 [5] of 37 µM, an Emax [5] of 91% and a CC50 [6] of 62.1 µM. The Emax [6] was 84%, the cytotoxic activity ([7]; MCF-7, Muse Count & Viability Kit, 72 h) was “inactive” and the “percentage of inactivated cells raised to” value ([8]; concentration 10 times higher than its CC50) was 65%. For the same compound, the “percentage of inactivated cells raised to” value ([8]; tested at its CC50) was 30%.
